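In this assay, cells in 96-well plates receive the compound at five concentrations for 48 hours. Endpoints are linearly interpolated between the surrounding concentrations. The concentration for 50% growth inhibition is given as GI50. TGI marks complete inhibition of growth.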
How the values were obtained:
Assay in all cases: NCI-60 cell line screen, 48 h
M14 melanoma = test system: M14 melanoma
HCT-116 colon = test system: HCT-116 colon
SF-539 CNS = test system: SF-539 CNS
UACC-257 melanoma = test system: UACC-257 melanoma
IGROV1 ovarian = test system: IGROV1 ovarian
SN12C renal = test system: SN12C renal
MDA-MB-231 breast = test system: MDA-MB-231 breast
PC-3 prostate = test system: PC-3 prostate
A498 renal = test system: A498 renal
SF-268 CNS = test system: SF-268 CNS
DU-145 prostate = test system: DU-145 prostate
BT-549 breast = test system: BT-549 breast
LOX IMVI melanoma = test system: LOX IMVI melanoma
NCI-H23 lung = test system: NCI-H23 lung
SNB-75 CNS = test system: SNB-75 CNS
NCI/ADR-RES ovarian = test system: NCI/ADR-RES ovarian
UACC-62 melanoma = test system: UACC-62 melanoma
SW-620 colon = test system: SW-620 colon
RPMI-8226 leukemia = test system: RPMI-8226 leukemia
NCI-H226 lung = test system: NCI-H226 lung
SK-MEL-5 melanoma = test system: SK-MEL-5 melanoma
SK-MEL-28 melanoma = test system: SK-MEL-28 melanoma
KM12 colon = test system: KM12 colon
COLO 205 colon = test system: COLO 205 colon
HT29 colon = test system: HT29 colon
CCRF-CEM leukemia = test system: CCRF-CEM leukemia
OVCAR-4 ovarian = test system: OVCAR-4 ovarian
OVCAR-5 ovarian = test system: OVCAR-5 ovarian
OVCAR-3 ovarian = test system: OVCAR-3 ovarian
SK-OV-3 ovarian = test system: SK-OV-3 ovarian
ACHN renal = test system: ACHN renal
MCF7 breast = test system: MCF7 breast
UO-31 renal = test system: UO-31 renal
HS 578T breast = test system: HS 578T breast
OVCAR-8 ovarian = test system: OVCAR-8 ovarian
786-0 renal = test system: 786-0 renal
RXF 393 renal = test system: RXF 393 renal
MALME-3M melanoma = test system: MALME-3M melanoma
NCI-H460 lung = test system: NCI-H460 lung
SNB-19 CNS = test system: SNB-19 CNS
EKVX NSCLC = test system: EKVX NSCLC
SK-MEL-2 melanoma = test system: SK-MEL-2 melanoma
NCI-H522 lung = test system: NCI-H522 lung
T-47D breast = test system: T-47D breast
HOP-92 NSCLC = test system: HOP-92 NSCLC
HOP-62 NSCLC = test system: HOP-62 NSCLC
A549 NSCLC = test system: A549 NSCLC
U251 CNS = test system: U251 CNS
HCT-15 colon = test system: HCT-15 colon
SF-295 CNS = test system: SF-295 CNS
MDA-MB-435 = test system: MDA-MB-435
HCC-2998 colon = test system: HCC-2998 colon
CAKI-1 renal = test system: CAKI-1 renal
HL-60(TB) leukemia = test system: HL-60(TB) leukemia
SR leukemia = test system: SR leukemia
K-562 leukemia = test system: K-562 leukemia
MOLT-4 leukemia = test system: MOLT-4 leukemia
TK-10 renal = test system: TK-10 renal

## O=C(O)Cn1ccc2ccccc21
M14 melanoma
  GI50: > 100 µM
  TGI: > 100 µM
HCT-116 colon
  GI50: > 100 µM
  TGI: > 100 µM
SF-539 CNS
  GI50: > 100 µM
  TGI: > 100 µM
UACC-257 melanoma
  GI50: > 100 µM
  TGI: > 100 µM
IGROV1 ovarian
  GI50: 72.7 µM
  TGI: > 100 µM
SN12C renal
  GI50: > 100 µM
  TGI: > 100 µM
MDA-MB-231 breast
  GI50: > 100 µM
  TGI: > 100 µM
PC-3 prostate
  GI50: > 100 µM
  TGI: > 100 µM
A498 renal
  GI50: > 100 µM
  TGI: > 100 µM
SF-268 CNS
  GI50: > 100 µM
  TGI: > 100 µM
DU-145 prostate
  GI50: > 100 µM
  TGI: > 100 µM
BT-549 breast
  GI50: > 100 µM
  TGI: > 100 µM
LOX IMVI melanoma
  GI50: > 100 µM
  TGI: > 100 µM
NCI-H23 lung
  GI50: > 100 µM
  TGI: > 100 µM
SNB-75 CNS
  GI50: > 100 µM
  TGI: > 100 µM
NCI/ADR-RES ovarian
  GI50: > 100 µM
  TGI: > 100 µM
UACC-62 melanoma
  GI50: > 100 µM
  TGI: > 100 µM
SW-620 colon
  GI50: > 100 µM
  TGI: > 100 µM
RPMI-8226 leukemia
  GI50: > 100 µM
  TGI: > 100 µM
NCI-H226 lung
  GI50: > 100 µM
  TGI: > 100 µM
SK-MEL-5 melanoma
  GI50: > 100 µM
  TGI: > 100 µM
SK-MEL-28 melanoma
  GI50: > 100 µM
  TGI: > 100 µM
KM12 colon
  GI50: > 100 µM
  TGI: > 100 µM
COLO 205 colon
  GI50: > 100 µM
  TGI: > 100 µM
HT29 colon
  GI50: > 100 µM
  TGI: > 100 µM
CCRF-CEM leukemia
  GI50: > 100 µM
  TGI: > 100 µM
OVCAR-4 ovarian
  GI50: > 100 µM
  TGI: > 100 µM
OVCAR-5 ovarian
  GI50: > 100 µM
  TGI: > 100 µM
OVCAR-3 ovarian
  GI50: > 100 µM
  TGI: > 100 µM
SK-OV-3 ovarian
  GI50: > 100 µM
  TGI: > 100 µM
ACHN renal
  GI50: > 100 µM
  TGI: > 100 µM
MCF7 breast
  GI50: > 100 µM
  TGI: > 100 µM
UO-31 renal
  GI50: > 100 µM
  TGI: > 100 µM
HS 578T breast
  GI50: > 100 µM
  TGI: > 100 µM
OVCAR-8 ovarian
  GI50: > 100 µM
  TGI: > 100 µM
786-0 renal
  GI50: > 100 µM
  TGI: > 100 µM
RXF 393 renal
  GI50: > 100 µM
  TGI: > 100 µM
MALME-3M melanoma
  GI50: > 100 µM
  TGI: > 100 µM
NCI-H460 lung
  GI50: > 100 µM
  TGI: > 100 µM
SNB-19 CNS
  GI50: > 100 µM
  TGI: > 100 µM
EKVX NSCLC
  GI50: > 100 µM
  TGI: > 100 µM
SK-MEL-2 melanoma
  GI50: > 100 µM
  TGI: > 100 µM
NCI-H522 lung
  GI50: > 100 µM
  TGI: > 100 µM
T-47D breast
  GI50: > 100 µM
  TGI: > 100 µM
HOP-92 NSCLC
  TGI: > 100 µM
HOP-62 NSCLC
  GI50: > 100 µM
  TGI: > 100 µM
A549 NSCLC
  GI50: > 100 µM
  TGI: > 100 µM
U251 CNS
  GI50: > 100 µM
  TGI: > 100 µM
HCT-15 colon
  GI50: > 100 µM
  TGI: > 100 µM
SF-295 CNS
  GI50: > 100 µM
  TGI: > 100 µM
MDA-MB-435
  GI50: > 100 µM
  TGI: > 100 µM
HCC-2998 colon
  GI50: > 100 µM
  TGI: > 100 µM
CAKI-1 renal
  GI50: > 100 µM
  TGI: > 100 µM

## Cn1cc(C2=C(c3ccccc3C(F)(F)F)C(=O)NC2=O)c2ccccc21
M14 melanoma
  GI50: 19.8 µM
  TGI: > 25 µM
HCT-116 colon
  GI50: 6.59 µM
  TGI: > 25 µM
SF-539 CNS
  GI50: 11.1 µM
  TGI: > 25 µM
UACC-257 melanoma
  GI50: 9.59 µM
  TGI: > 22.5 µM
IGROV1 ovarian
  GI50: 13.2 µM
  TGI: > 25 µM
SN12C renal
  GI50: 9.73 µM
  TGI: > 25 µM
MDA-MB-231 breast
  GI50: 17.4 µM
  TGI: > 25 µM
PC-3 prostate
  GI50: 6.13 µM
  TGI: > 25 µM
A498 renal
  GI50: 3.9 µM
  TGI: 17.5 µM
SF-268 CNS
  GI50: 11.4 µM
  TGI: > 25 µM
HL-60(TB) leukemia
  GI50: 6.87 µM
  TGI: 17.5 µM
DU-145 prostate
  GI50: 12.5 µM
  TGI: > 25 µM
BT-549 breast
  GI50: 11 µM
  TGI: > 25 µM
LOX IMVI melanoma
  GI50: 8.46 µM
  TGI: > 25 µM
SR leukemia
  GI50: 6.36 µM
  TGI: > 22.2 µM
NCI-H23 lung
  GI50: 11.9 µM
  TGI: > 25 µM
SNB-75 CNS
  GI50: > 14 µM
  TGI: > 25 µM
K-562 leukemia
  GI50: 8.82 µM
  TGI: > 25 µM
NCI/ADR-RES ovarian
  GI50: 9.53 µM
  TGI: > 25 µM
UACC-62 melanoma
  GI50: 9.97 µM
  TGI: > 25 µM
SW-620 colon
  GI50: 10.2 µM
  TGI: > 25 µM
RPMI-8226 leukemia
  GI50: 10.7 µM
  TGI: > 25 µM
NCI-H226 lung
  GI50: 7.07 µM
  TGI: > 24.2 µM
SK-MEL-5 melanoma
  GI50: 4.74 µM
  TGI: 13 µM
SK-MEL-28 melanoma
  GI50: 14.6 µM
  TGI: > 25 µM
KM12 colon
  GI50: 6.97 µM
  TGI: > 25 µM
COLO 205 colon
  GI50: 6.42 µM
  TGI: > 25 µM
HT29 colon
  GI50: 6.22 µM
  TGI: > 25 µM
CCRF-CEM leukemia
  GI50: 4.86 µM
  TGI: > 25 µM
OVCAR-4 ovarian
  GI50: 9.64 µM
  TGI: > 25 µM
OVCAR-5 ovarian
  GI50: > 24.1 µM
  TGI: > 25 µM
OVCAR-3 ovarian
  GI50: 7.8 µM
  TGI: 24.8 µM
SK-OV-3 ovarian
  GI50: 10.2 µM
  TGI: > 25 µM
ACHN renal
  GI50: 8.06 µM
  TGI: > 25 µM
MCF7 breast
  GI50: 7.47 µM
  TGI: > 25 µM
UO-31 renal
  GI50: 7.84 µM
  TGI: > 25 µM
HS 578T breast
  GI50: 5.36 µM
  TGI: > 25 µM
OVCAR-8 ovarian
  GI50: 10.4 µM
  TGI: > 25 µM
786-0 renal
  GI50: 9.16 µM
  TGI: > 25 µM
RXF 393 renal
  GI50: 5.17 µM
  TGI: 16.7 µM
MALME-3M melanoma
  GI50: > 18.5 µM
  TGI: > 25 µM
NCI-H460 lung
  GI50: 9.18 µM
  TGI: > 25 µM
SNB-19 CNS
  GI50: 21 µM
  TGI: > 25 µM
SK-MEL-2 melanoma
  GI50: 8.11 µM
  TGI: > 24 µM
NCI-H522 lung
  GI50: 11.6 µM
  TGI: > 25 µM
T-47D breast
  GI50: 7.68 µM
  TGI: > 25 µM
HOP-92 NSCLC
  GI50: 17.2 µM
  TGI: > 25 µM
HOP-62 NSCLC
  GI50: 11.8 µM
  TGI: > 25 µM
A549 NSCLC
  GI50: 7.89 µM
  TGI: > 25 µM
MOLT-4 leukemia
  GI50: 5.89 µM
  TGI: > 22.6 µM
U251 CNS
  GI50: 7.06 µM
  TGI: > 25 µM
HCT-15 colon
  GI50: 9.59 µM
  TGI: > 25 µM
TK-10 renal
  GI50: 10.2 µM
  TGI: > 25 µM
SF-295 CNS
  GI50: 4.33 µM
  TGI: > 17.2 µM
MDA-MB-435
  GI50: 9.89 µM
  TGI: > 25 µM
HCC-2998 colon
  GI50: > 19.6 µM
  TGI: > 25 µM
CAKI-1 renal
  GI50: 6.6 µM
  TGI: > 25 µM

Source: PubChem BioAssay (NCI)
